According to ChEMBL document CHEMBL5653615 (J Biol Chem, 2013):

What was measured:
[1] = target: Calcium/calmodulin-dependent protein kinase type 1B (Homo sapiens) (UniProt Q6P2M8); experiment: Inhibition of human CAMK1b at 18.6 nM by HotSpot assay relative to control
[2] = target: Serine/threonine-protein kinase MARK2 (Homo sapiens) (UniProt Q7KZI7); experiment: Inhibition of human PAR-1Ba at 18.6 nM by HotSpot assay relative to control
[3] = target: Mitogen-activated protein kinase kinase kinase 9 (Homo sapiens) (UniProt P80192); experiment: Inhibition of human MAP3K9 at 18.6 nM by HotSpot assay relative to control
[4] = target: T1, Mitogen-activated protein kinase 13 (Homo sapiens) (UniProt O15264); experiment: Inhibition of human MAPK13 at 18.6 nM by HotSpot assay relative to control
T1 sequence (whole entry): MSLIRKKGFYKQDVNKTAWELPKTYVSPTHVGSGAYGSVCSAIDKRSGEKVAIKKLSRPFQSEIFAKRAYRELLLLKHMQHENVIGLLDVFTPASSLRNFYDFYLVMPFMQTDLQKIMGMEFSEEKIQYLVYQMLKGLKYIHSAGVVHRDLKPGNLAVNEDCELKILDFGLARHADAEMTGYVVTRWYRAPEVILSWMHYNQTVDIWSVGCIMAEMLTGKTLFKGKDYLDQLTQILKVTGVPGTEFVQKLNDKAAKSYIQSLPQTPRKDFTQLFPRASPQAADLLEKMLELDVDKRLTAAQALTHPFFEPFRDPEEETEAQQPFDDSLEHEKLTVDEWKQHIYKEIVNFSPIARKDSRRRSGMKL

[5] = target: Serine/threonine-protein kinase PAK 4 (Homo sapiens) (UniProt O96013); experiment: Inhibition of human PAK4 at 18.6 nM by HotSpot assay relative to control
[6] = target: Serine/threonine-protein kinase pim-1 (Homo sapiens) (UniProt P11309); experiment: Inhibition of human PIM1 at 18.6 nM by HotSpot assay relative to control
[7] = target: Protein kinase C gamma type (Homo sapiens) (UniProt P05129); experiment: Inhibition of human PKCg at 18.6 nM by HotSpot assay relative to control
[8] = target: Receptor-interacting serine/threonine-protein kinase 2 (Homo sapiens) (UniProt O43353); experiment: Inhibition of human RIPK2 at 18.6 nM by HotSpot assay relative to control
[9] = target: Protein-tyrosine kinase 6 (Homo sapiens) (UniProt Q13882); experiment: Inhibition of human BRK at 1.82 nM by HotSpot assay relative to control
[10] = target: Tyrosine-protein kinase CSK (Homo sapiens) (UniProt P41240); experiment: Inhibition of human CSK at 1.82 nM by HotSpot assay relative to control
[11] = target: T2, Myotonin-protein kinase (Homo sapiens) (UniProt Q09013); experiment: Inhibition of human DMPK at 1.82 nM by HotSpot assay relative to control
T2 sequence (whole entry): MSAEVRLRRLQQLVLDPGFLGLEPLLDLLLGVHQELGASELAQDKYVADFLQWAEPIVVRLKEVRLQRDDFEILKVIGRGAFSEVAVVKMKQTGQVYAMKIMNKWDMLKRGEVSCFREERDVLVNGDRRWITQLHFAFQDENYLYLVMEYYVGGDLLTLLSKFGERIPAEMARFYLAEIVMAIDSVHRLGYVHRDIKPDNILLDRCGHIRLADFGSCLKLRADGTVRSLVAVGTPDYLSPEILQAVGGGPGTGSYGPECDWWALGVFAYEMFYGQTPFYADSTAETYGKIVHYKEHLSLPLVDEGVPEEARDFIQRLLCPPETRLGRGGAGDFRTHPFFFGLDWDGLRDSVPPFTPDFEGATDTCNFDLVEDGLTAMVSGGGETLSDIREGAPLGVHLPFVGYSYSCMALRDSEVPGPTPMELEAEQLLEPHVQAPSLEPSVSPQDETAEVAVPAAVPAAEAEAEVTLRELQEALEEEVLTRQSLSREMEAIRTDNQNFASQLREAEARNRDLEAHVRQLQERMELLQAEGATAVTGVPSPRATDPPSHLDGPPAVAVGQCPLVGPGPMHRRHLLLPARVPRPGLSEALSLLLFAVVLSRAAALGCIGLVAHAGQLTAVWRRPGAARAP

[12] = target: T3, Dual specificity tyrosine-phosphorylation-regulated kinase 3 (Homo sapiens) (UniProt O43781); experiment: Inhibition of human DYRK3 at 1.82 nM by HotSpot assay relative to control
T3 sequence (whole entry): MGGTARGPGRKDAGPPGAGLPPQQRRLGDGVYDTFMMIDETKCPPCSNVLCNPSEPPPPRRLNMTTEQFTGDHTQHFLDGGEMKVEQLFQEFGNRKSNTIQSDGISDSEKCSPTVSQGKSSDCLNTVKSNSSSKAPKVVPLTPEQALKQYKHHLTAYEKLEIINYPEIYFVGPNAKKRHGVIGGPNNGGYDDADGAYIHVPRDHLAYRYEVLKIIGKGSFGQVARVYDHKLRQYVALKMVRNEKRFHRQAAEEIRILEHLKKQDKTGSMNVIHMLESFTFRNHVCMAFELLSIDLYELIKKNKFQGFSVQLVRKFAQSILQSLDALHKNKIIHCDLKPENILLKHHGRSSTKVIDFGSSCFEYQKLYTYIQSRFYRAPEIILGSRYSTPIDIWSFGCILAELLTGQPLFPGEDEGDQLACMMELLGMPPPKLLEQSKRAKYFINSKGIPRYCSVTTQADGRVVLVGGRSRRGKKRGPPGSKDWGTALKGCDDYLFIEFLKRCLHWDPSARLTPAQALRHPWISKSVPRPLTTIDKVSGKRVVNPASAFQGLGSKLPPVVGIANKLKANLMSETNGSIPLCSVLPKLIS

[13] = target: Mitogen-activated protein kinase 9 (Homo sapiens) (UniProt P45984); experiment: Inhibition of human JNK2 at 1.82 nM by HotSpot assay relative to control
[14] = target: MAP kinase-activated protein kinase 2 (Homo sapiens) (UniProt P49137); experiment: Inhibition of human MAPKAPK2 at 1.82 nM by HotSpot assay relative to control
[15] = target: Ribosomal protein S6 kinase alpha-3 (Homo sapiens) (UniProt P51812); experiment: Inhibition of human RSK2 at 1.82 nM by HotSpot assay relative to control
[16] = target: High affinity nerve growth factor receptor (Homo sapiens) (UniProt P04629); experiment: Inhibition of human TRKA at 1.82 nM by HotSpot assay relative to control
[17] = target: Serine/threonine-protein kinase WNK3 (Homo sapiens) (UniProt Q9BYP7); experiment: Inhibition of human WNK3 at 1.82 nM by HotSpot assay relative to control
Sequence of Serine/threonine-protein kinase WNK3 (Homo sapiens) (Q9BYP7 whole entry): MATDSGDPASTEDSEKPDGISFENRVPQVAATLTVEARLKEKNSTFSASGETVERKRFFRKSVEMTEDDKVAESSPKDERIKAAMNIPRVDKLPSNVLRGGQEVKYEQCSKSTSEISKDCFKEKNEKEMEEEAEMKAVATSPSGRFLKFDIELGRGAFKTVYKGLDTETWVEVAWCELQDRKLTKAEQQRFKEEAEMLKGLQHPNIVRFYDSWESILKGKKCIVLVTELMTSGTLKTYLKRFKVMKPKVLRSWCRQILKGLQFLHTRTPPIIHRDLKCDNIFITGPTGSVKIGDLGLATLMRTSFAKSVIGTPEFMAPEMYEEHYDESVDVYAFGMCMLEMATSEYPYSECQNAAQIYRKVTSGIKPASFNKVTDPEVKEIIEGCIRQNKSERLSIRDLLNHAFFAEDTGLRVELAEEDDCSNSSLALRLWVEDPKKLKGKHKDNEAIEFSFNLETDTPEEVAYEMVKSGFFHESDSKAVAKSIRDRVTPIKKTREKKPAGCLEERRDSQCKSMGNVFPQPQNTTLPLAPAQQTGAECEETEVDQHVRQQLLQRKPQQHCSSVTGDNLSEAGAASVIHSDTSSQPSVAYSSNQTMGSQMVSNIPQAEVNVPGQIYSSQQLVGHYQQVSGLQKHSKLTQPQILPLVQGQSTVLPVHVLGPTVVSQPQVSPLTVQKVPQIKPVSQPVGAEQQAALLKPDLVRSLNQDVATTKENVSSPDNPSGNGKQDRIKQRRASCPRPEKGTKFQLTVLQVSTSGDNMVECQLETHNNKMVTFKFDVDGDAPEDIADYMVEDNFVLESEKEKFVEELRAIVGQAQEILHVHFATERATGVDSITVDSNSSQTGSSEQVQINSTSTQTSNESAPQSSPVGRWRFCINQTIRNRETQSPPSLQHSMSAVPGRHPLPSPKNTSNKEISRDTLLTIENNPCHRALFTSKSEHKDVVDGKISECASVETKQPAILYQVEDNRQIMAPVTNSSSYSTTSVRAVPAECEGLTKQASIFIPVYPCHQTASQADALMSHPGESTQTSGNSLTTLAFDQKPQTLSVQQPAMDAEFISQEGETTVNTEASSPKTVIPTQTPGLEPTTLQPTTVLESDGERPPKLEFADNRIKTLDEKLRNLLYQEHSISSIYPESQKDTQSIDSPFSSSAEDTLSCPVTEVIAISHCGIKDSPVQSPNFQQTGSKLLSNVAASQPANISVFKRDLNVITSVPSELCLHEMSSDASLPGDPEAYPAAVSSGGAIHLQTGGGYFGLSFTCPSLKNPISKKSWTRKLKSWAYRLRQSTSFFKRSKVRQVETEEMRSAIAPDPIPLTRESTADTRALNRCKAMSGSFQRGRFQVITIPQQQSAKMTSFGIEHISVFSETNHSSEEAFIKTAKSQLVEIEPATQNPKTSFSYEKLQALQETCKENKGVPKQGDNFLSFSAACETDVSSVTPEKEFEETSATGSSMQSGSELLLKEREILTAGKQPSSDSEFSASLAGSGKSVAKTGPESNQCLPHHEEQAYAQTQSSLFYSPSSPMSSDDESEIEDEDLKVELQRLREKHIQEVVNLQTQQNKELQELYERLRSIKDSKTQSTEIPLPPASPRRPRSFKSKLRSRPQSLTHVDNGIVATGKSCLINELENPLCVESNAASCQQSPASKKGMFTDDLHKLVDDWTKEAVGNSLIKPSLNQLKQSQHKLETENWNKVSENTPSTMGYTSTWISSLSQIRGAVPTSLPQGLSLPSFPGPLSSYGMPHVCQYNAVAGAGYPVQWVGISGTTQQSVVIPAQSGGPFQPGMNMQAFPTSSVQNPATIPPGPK

Sequence of High affinity nerve growth factor receptor (Homo sapiens) (P04629 33-796 limits assumed): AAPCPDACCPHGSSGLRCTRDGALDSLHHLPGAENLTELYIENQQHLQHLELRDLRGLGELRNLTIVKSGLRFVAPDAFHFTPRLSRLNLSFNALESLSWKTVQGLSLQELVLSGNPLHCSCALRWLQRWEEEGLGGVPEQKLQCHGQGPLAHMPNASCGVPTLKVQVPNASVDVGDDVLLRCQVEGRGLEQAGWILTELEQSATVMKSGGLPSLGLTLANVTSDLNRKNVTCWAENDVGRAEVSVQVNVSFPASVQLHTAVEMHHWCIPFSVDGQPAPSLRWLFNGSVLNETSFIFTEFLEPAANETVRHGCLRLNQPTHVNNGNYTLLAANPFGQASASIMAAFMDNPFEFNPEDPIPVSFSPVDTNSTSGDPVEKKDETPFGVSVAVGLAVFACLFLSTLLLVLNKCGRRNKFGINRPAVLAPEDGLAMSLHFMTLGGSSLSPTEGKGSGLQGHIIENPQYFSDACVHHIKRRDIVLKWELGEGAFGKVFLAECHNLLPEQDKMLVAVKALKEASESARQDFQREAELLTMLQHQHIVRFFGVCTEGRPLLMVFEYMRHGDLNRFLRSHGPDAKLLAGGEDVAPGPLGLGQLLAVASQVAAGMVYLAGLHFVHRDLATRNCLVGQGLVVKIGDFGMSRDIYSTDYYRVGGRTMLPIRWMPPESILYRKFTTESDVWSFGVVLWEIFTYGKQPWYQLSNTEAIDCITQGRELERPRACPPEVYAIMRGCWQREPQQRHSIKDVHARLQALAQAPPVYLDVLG
Sequence of Ribosomal protein S6 kinase alpha-3 (Homo sapiens) (P51812 whole entry): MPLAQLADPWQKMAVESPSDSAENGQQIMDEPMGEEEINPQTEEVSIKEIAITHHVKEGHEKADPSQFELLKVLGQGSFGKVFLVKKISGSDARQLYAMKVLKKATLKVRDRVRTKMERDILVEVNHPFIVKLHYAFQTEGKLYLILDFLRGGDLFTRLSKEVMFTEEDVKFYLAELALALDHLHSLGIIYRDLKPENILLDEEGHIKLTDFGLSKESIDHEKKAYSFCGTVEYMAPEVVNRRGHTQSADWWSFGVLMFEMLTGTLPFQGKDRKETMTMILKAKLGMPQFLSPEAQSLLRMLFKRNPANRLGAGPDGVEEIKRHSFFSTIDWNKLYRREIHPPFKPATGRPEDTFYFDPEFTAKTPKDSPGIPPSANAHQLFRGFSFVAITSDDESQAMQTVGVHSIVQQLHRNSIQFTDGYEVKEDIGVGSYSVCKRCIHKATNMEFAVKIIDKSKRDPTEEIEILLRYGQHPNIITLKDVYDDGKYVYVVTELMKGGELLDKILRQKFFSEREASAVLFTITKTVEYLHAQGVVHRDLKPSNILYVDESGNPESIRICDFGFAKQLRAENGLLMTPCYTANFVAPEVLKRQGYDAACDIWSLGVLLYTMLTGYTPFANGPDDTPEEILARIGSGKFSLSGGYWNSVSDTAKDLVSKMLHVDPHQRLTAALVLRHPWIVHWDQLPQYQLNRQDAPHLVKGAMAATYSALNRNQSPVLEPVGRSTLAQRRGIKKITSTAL
Sequence of Receptor-interacting serine/threonine-protein kinase 2 (Homo sapiens) (O43353 whole entry): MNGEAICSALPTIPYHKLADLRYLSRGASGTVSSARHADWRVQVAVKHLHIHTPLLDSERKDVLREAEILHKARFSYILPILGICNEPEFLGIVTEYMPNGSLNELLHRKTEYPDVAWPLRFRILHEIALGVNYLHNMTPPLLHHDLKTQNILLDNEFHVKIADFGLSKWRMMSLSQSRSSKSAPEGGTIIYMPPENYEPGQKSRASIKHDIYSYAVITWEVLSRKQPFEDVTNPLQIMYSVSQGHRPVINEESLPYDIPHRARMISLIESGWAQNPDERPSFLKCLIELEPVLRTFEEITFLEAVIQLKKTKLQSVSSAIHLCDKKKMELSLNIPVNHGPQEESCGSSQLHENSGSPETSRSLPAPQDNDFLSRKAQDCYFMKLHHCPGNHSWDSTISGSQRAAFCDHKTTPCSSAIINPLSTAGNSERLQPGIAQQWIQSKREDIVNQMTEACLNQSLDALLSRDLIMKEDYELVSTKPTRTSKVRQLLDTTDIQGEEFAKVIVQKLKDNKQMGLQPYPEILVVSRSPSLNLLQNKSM
Sequence of Calcium/calmodulin-dependent protein kinase type 1B (Homo sapiens) (Q6P2M8 whole entry): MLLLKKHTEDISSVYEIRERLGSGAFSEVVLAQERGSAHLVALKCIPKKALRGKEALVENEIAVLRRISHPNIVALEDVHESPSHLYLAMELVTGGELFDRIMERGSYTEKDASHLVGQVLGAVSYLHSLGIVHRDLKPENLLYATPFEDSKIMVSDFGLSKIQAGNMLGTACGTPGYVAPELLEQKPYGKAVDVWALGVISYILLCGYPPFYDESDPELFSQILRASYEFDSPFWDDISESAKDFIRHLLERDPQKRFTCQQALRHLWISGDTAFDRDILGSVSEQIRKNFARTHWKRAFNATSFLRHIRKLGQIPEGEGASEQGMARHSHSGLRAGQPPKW

For `C[C@]1(O)C[C@@H](c2nc(-c3ccc4ccc(-c5ccccc5)nc4c3)c3c(N)nccn32)C1`, the inhibition [1] was -4.62%, the inhibition [2] was -3.78% and the inhibition [3] was -2.33%. For the same compound, the inhibition [4] was -4.06%, the inhibition [5] was -5.78% and the inhibition [6] was -3.58%. It also gave an inhibition [7] of -8% and an inhibition [8] of 12.1%.
With `C[C@@]1(C(=O)Nc2ccc(F)nc2)CCCN1c1nc(Nc2cc(C3CC3)n[nH]2)c2cccn2n1` the inhibition [9] was 0.2%, the inhibition [10] was 3.45% and the inhibition [11] was 2.2%. The inhibition [12] was 8.06%, the inhibition [13] was -2.41% and the inhibition [14] was 0.98%. For the same compound, the inhibition [15] was 2.83%, the inhibition [16] was 21.1% and the inhibition [17] was 3.37%.
